# Measurements from paper PMC9774438, “Effects of Synthetic Short Cationic Antimicrobial Peptides on the Catalytic Activity of Myeloperoxidase, Reducing Its Oxidative Capacity” (Antioxidants, 2022).
# “Also recorded” adds a separate entry of the source.
# How the values were obtained:
# Format in all cases: biochemical
# myeloperoxidase (MPO) [1] = molecular target: T1, myeloperoxidase (MPO) (Homo sapiens, UniProt P05164); experiment: MPO heme absorbance spectra (Compound II formation and decay, MPO turnover); details: 100 μM H2O2, 10 mM Na-phosphate pH 7.4
# T1 construct: Native myeloperoxidase (MPO) was obtained from human leukocyte extract by successive chromatography on heparin-Sepharose and phenyl-agarose; from tissue; host or cells: human leukocyte extract
# T1 sequence (P05164 279-745 limits assumed): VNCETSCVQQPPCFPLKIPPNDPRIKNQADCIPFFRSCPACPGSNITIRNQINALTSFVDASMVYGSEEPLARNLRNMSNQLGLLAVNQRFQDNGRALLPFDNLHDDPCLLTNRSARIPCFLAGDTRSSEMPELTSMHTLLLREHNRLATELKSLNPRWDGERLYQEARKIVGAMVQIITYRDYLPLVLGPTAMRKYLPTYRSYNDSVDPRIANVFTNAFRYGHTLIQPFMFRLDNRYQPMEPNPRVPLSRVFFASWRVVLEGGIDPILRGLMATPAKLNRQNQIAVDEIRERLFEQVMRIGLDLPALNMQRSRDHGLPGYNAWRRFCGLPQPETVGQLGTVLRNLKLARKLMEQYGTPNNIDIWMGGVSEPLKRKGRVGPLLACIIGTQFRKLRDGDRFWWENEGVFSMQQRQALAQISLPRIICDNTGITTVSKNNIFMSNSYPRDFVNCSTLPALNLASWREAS
# T1 sequence (P05164 165-273 limits assumed): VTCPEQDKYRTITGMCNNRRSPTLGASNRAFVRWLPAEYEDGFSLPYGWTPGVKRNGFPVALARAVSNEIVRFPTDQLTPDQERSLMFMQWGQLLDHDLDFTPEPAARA
# Experimental: Native myeloperoxidase (MPO) was obtained from human leukocyte extract by successive chromatography on heparin-Sepharose and phenyl-agarose followed by gel-filtration on a Sephacryl S-200 HR, as previously described. The Reinheit Zahl value (A430 nm/A280 nm) for the purified protein was 0.85. The MPO concentration was determined as the heme concentration measured spectrophotometrically at 430 nm with a molar extinction coefficient of 91,000 M^−1 cm^−1 [35].
# Spectra of MPO were recorded on a Cary 50 Bio UV-Vis spectrophotometer (Varian, Mulgrave, Australia). Experiments were performed with Eppendorf UVette plastic UV/Vis cuvettes (Hamburg, Germany). An MPO concentration was 2 μM heme. MPO was mixed with CAMP in 10 mM Na-phosphate buffer (pH 7.4) supplemented with 0.2 mM DTPA. H2O2 was added as a microvolume of concentrated solution (100 μM final).
# To elucidate the influence of CAMPs on MPO catalytic activity, we analyzed absorbance spectral changes for MPO activated by H2O2 in the presence of peptides. The spectra were obtained with 2 μM MPO heme and 100 μM H2O2 in 10 mM Na-phosphate buffer, pH 7.4. All reactions in these and further experiments were performed in buffers supplemented with 0.2 mM diethylenetriaminepentaacetic acid (DTPA) to sequester free transition metal ions to prevent tyrosine and cysteine autooxidation.
# Figure 2 Time courses of spectral absorbance changes at 430 nm (indicative of MPO ground state) and 455 nm (indicative of Compound II) in the absence and presence of cationic antimicrobial peptides (CAMPs) in the system MPO/H2O2. The name of CAMP is given in parentheses after the panel designation (A–D). H2O2 (100 µM) was added to MPO (2 µM heme) or MPO preincubated with peptides at different peptide/heme molar ratios for 5 min in 10 mM Na-phosphate buffer, pH 7.4. Spectra were taken before and 0.25 min, 5 min, 10 min, and so on after adding H2O2. The initial absorbance values (before H2O2 addition) are shown as a red square marker. […]
# myeloperoxidase (MPO) [2] = molecular target: T1, myeloperoxidase (MPO); experiment: Electrospray mass spectrometry of dityrosine cross-linked peptide dimer; details: 40 μM peptide, 0.4 μM MPO heme, 50 μM H2O2, 10 mM Na-phosphate; ESI-MS positive mode
# Experimental: Mass spectra were acquired using an Orbitrap Q Exactive HF-X mass spectrometer equipped with HESI source in the positive ion mode (Thermo Fisher Scientific, Waltham, MA, USA). Direct infusion syringe pump sampling was carried out with a […] Hamilton syringe at a flow rate of […]. The spray voltage was set at +3.5 kV, the sheath and auxiliary gas flow rate at 5 and 1, respectively; the S-lens RF level at 65; the capillary temperature at 250 °C. The resolution was set at 240,000, the AGC target at 1E6, and the maximum injection time at 50 ms. A summary spectrum was collected over 4 min and used for calculating S/N and measuring peak intensities. Before analysis, desalting of samples was carried out using C-18 ZIP-TIP (Millipore, Billerica, MA, USA), according to the manufacturer’s instructions. The eluate was mixed with 0.1% formic acid in DI water (18 MOhm) to a volume of 100 μL. The solutions prepared were used for direct infusion.
# Additional proof for dityrosine formation upon incubation of Hm-AMP2 with H2O2-activated MPO was obtained by electrospray mass spectrometry which allowed the detection of a peptide product of the molecular weight of the dityrosine cross-linked peptide dimer. Dimerization of peptides via initial formation of a tyrosyl radical results in a 2 Da decrease in the double mass of the peptide to [2M − 2H]. […]
# myeloperoxidase (MPO) [3] = molecular target: T1, myeloperoxidase (MPO); experiment: Dityrosine fluorescence detection during MPO/H2O2 reaction; details: 40 μM peptide, 0.4 μM MPO heme, 50 μM H2O2, 10 mM Na-phosphate pH 7.4, 0.2 mM DTPA, λex 315 nm
# Experimental: Formation of dityrosine during the MPO reaction with CAMPs was monitored by fluorescence on a CM 2203 spectrofluorometer (Minsk, Belarus) with an excitation wavelength of 315 nm. Emission spectra were recorded between 350 nm and 500 nm, with the maximum being at 405–410 nm. MPO (0.4 μM) in a 1 mL cuvette was mixed with CAMP (40 μM) at pH 7.4 in 10 mM Na-phosphate buffer supplemented with 0.2 mM DTPA, and the starting emission spectrum was recorded. Succeeding spectra were taken at time intervals following the addition of 50 μM H2O2 to the continuously stirred reaction mixture.
# Since dityrosine is an intensely fluorescent compound, the fluorescence method can be applied to detect its formation. MPO (0.4 µM heme) and tyrosine-containing Hm-AMP2 (40 µM) or HM-AMP8 (40 µM) were mixed in a cuvette in 10 mM Na-phosphate buffer, pH 7.4. No emission peak characteristic of dityrosine was observed. Succeeding spectra were recorded at time intervals after H2O2 (50 µM) addition. Dityrosine formation was monitored by the increase in fluorescence intensity.
sequence,measurement,setting,value
"EKRWRRLIFNYF [Hm-AMP2, synthetic cationic antimicrobial peptide …]",effect on H2O2-induced formation and decay of MPO Compound II / MPO turnover (summary),"myeloperoxidase (MPO) [1]; 2 μM MPO heme, all concentrations",accelerated MPO turnover; also recorded: Acceleration of CII reduction to native MPO
same,effect on Compound II decay to native MPO,"myeloperoxidase (MPO) [1]; peptide/heme molar ratio up to 45:1, 2 μM MPO heme","accelerated Compound II decay to native MPO, with the effect being greater at a higher peptide/heme molar ratio"
same,increase of [2M − 2H + 3H]3+ dimer ion signal (m/z 1152.4) vs control,myeloperoxidase (MPO) [2],20 fold
same,dityrosine formation (fluorescence),myeloperoxidase (MPO) [3],time-dependent generation of dityrosine; also recorded: diY formation
